The source of these data is ChEMBL document CHEMBL6103588, “Promising thiazolidinedione-thiazole based multi-target and neuroprotective hybrids for Alzheimer's disease: Design, synthesis, in-vitro, in-vivo and in-silico studies” (Eur J Med Chem, 2025).

For series [1], the system named is Mus musculus. In words: Antioxidant activity against scopolamine-induced Albino mouse assessed as increase in GSH-Px level in brain at 5 mg/kg measured after 24 hrs. Type of series: functional.
The nature of series [2]: Acute toxicity in male Swiss albino mouse assessed as mortality rate at 1500 mg/kg BW, po administered as single dose via gavage measured after 48 hrs by up-and-down method relative to control. As to conditions: in vivo. Type of series: organism-based.
Series [3] concerns the target Prostaglandin G/H synthase 1 (Homo sapiens, UniProt P23219). As to conditions: read-out: IC50.
Series [4] addresses Acetylcholinesterase (Electrophorus electricus, UniProt O42275). The series is described as follows: Inhibition of Electric eel AChE using acetylthiocholine iodide as substrate pre-incubated for 10 mins followed by substrate addition and measured after 15 mins by DTNB reagent based Ellman's method. As to conditions: read-out: IC50. (Ellman's reagent forms a yellow product with free thiols.)

Series [5] deals with T1, Amine oxidase [flavin-containing] A (Homo sapiens, UniProt P21397).
T1 sequence (P21397 whole entry): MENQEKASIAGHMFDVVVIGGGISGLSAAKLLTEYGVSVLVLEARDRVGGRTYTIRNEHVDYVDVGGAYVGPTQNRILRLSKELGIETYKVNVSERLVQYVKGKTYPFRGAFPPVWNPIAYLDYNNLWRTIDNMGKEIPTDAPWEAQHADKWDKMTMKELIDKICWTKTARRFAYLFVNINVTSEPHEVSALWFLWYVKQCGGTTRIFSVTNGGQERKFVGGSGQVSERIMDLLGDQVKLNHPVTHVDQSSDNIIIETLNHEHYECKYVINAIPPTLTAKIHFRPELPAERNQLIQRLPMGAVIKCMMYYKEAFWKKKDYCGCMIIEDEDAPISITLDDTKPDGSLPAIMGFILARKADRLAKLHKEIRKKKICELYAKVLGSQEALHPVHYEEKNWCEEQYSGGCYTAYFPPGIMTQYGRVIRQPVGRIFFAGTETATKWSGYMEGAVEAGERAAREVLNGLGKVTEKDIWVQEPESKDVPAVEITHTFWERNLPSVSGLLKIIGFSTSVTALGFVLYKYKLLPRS
In words: Inhibition of human MAO-A using tyramine/benzylamine as substrate measured after 30 mins by fluorometric assay. As to conditions: read-out: IC50.

Series [6] has as its target T2, Prostaglandin G/H synthase 2 (Homo sapiens, UniProt P35354).
T2 sequence (P35354 whole entry): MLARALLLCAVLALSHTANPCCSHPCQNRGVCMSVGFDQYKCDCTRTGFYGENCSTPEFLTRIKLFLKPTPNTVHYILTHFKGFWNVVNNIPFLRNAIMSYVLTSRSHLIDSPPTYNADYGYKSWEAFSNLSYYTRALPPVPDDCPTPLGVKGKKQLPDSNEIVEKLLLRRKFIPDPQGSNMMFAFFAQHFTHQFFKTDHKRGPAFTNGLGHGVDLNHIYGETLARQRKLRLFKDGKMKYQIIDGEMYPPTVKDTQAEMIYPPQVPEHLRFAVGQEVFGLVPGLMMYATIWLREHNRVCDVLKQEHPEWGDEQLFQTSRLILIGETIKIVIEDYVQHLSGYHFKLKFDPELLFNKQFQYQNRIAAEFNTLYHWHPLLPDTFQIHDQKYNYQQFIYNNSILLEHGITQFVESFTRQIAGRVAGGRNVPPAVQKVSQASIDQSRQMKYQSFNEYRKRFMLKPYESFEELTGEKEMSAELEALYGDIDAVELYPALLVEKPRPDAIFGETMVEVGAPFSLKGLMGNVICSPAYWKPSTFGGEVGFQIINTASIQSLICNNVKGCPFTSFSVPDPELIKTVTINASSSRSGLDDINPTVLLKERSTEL
Description: Inhibition of COX-2 (unknown origin) using arachidonic acid as substrate and in presence of TMPD preincubated for 5 mins followed by substrate addition and measured after 5 mins by UV visible spectrophotometric analysis

Series [7] is described as follows: Neurotoxicity against human SH-SY5Y cells assessed as reduction in cell viability at 100 uM incubated for 24 hrs by MTT assay. Type of series: toxicity, cell-based. In general terms: Tetrazolium assays rely on reduction of a dye to a coloured formazan, in cell work by metabolically active cells.
Series [8] deals with PC-12. The series is described as follows: Neuroprotective activity against H2O2-induced rat PC12 cells assessed as protection against H2O2-induced oxidative stress by measuring cell viability at 25 uM pretreated for 24 hr followed by H2O2 addition and measured after 24 hrs by MTT reagent based spectrophotometric analysis (reference value: 47.32 %). Type of series: functional. As to conditions: time 48 hrs.

Series [9] is described as follows: Acute toxicity in male Swiss albino mouse assessed as signs of distress at 1500 mg/kg BW, po administered as single dose via gavage measured after 48 hrs by up-and-down method. Type of series: organism-based. As to conditions: in vivo.
Series [10] is described as follows: Acute toxicity in male Swiss albino mouse assessed as signs of discomfort at 1200 mg/kg BW, po administered as single dose via gavage measured after 20 mins by up-and-down method. Type of series: organism-based. As to conditions: in vivo.
A short description of series [11]: Acute toxicity in male Swiss albino mouse assessed as signs of pain at 1200 mg/kg BW, po administered as single dose via gavage measured after 20 mins by up-and-down method. Type of series: organism-based. As to conditions: in vivo.
A short description of series [12]: Acute toxicity in male Swiss albino mouse assessed as lethargy at 1200 mg/kg BW, po administered as single dose via gavage measured after 20 mins by up-and-down method. Type of series: organism-based. As to conditions: in vivo.
A short description of series [13]: Acute toxicity in male Swiss albino mouse assessed as seizures at 1200 mg/kg BW, po administered as single dose via gavage measured after 20 mins by up-and-down method. Type of series: organism-based. As to conditions: in vivo.
Series [14] is described as follows: Acute toxicity in male Swiss albino mouse assessed as lethargy at 450 mg/kg BW, po administered as single dose via gavage measured after 1 hrs by up-and-down method. Type of series: organism-based. As to conditions: in vivo.
Series [15] in a line: Acute toxicity in male Swiss albino mouse assessed as ataxia at 450 mg/kg BW, po administered as single dose via gavage measured after 1 hrs by up-and-down method. Type of series: organism-based. As to conditions: in vivo.
Series [16] in a line: Acute toxicity in male Swiss albino mouse assessed as survival time at 1500 mg/kg BW, po administered as single dose via gavage by up-and-down method. As to conditions: in vivo. Type of series: organism-based.
The nature of series [17]: Acute toxicity in male Swiss albino mouse assessed as survival time at 900 mg/kg BW, po administered as single dose via gavage by up-and-down method. Type of series: organism-based. As to conditions: in vivo.
Series [18] can be described thus: Acute toxicity in male Swiss albino mouse assessed as survival time at 450 mg/kg BW, po administered as single dose via gavage by up-and-down method. Type of series: organism-based. As to conditions: in vivo.
Series [19] is described as follows: Acute toxicity in male Swiss albino mouse assessed as mortality rate at 650 mg/kg BW, po administered as single dose via gavage measured after 48 hrs by up-and-down method relative to control. Type of series: organism-based. As to conditions: in vivo.
The test system of series [20] is Mus musculus. In words: Antioxidant activity against scopolamine-induced Albino mouse assessed as increase in SOD level in brain at 5 mg/kg measured after 24 hrs. Type of series: functional.
A short description of series [21]: in vitro. As to conditions: PAMPA, pH 7.4. (In general: PAMPA measures passive passage across an artificial lipid membrane.)
Description: Permeability of compound in PBS at pH 7.4 incubated for 20 hrs by PAMPA-BBB assay

Chain of Prostaglandin G/H synthase 1 (P23219 whole entry): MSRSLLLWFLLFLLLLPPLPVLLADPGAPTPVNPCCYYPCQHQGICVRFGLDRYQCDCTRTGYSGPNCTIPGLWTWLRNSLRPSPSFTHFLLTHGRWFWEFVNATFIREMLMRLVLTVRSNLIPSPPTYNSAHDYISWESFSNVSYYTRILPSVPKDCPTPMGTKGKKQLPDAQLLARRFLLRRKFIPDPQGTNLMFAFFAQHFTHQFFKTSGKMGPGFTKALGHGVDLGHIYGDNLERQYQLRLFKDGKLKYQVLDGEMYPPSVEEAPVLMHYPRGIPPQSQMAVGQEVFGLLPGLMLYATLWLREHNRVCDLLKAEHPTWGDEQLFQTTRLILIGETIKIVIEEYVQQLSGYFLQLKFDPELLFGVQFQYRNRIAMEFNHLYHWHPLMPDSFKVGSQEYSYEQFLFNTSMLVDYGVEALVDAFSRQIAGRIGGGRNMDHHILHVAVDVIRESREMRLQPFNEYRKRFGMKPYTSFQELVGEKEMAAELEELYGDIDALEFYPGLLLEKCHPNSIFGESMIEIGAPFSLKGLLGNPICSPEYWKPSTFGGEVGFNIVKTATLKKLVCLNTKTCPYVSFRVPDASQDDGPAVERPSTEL
Chain of Acetylcholinesterase (O42275 whole entry): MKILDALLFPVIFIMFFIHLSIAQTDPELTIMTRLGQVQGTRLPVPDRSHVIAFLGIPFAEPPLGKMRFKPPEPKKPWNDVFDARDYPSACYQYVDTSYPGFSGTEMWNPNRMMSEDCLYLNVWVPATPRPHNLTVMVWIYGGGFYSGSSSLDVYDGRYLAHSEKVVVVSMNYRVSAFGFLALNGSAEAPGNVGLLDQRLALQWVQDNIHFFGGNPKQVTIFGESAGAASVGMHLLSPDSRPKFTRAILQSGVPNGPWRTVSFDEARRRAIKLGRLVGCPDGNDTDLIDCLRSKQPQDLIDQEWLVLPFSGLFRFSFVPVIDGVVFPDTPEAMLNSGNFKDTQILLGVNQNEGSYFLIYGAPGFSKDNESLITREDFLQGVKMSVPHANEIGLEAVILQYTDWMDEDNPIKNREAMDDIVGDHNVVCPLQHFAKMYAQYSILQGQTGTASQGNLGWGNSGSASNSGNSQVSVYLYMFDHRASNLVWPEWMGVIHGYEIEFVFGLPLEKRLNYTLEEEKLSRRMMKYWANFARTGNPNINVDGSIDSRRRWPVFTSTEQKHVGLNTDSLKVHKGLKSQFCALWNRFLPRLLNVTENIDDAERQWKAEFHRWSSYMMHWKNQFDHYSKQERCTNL

With `COc1cc(/C=C/C(=O)Nc2ccc3sc(NCN4C(=O)CSC4=O)nc3c2)ccc1O`, the Activity in [1] is given as 230 U/ml; in [7], “Toxic”; in series [8], 83.01%; in [9], “Toxic”; in series [10], “Toxic”; in series [11], “Toxic”. The Activity entry was “Toxic” in series [12]; “Toxic” in series [13]; “Toxic” in [14]; “Toxic” in series [15]; 95.03 U/ml in series [20]. For the same compound, the mortality at 48 h in series [2] was found to be 100%; in series [19], 28.6%. Also, the IC50 in series [3] was determined as 60.4 µM; in series [4], 0.072 µM; in [5] it was 14.5 µM; in series [6], 0.187 µM. For the same compound, the values for the Time in series [16], in [17] and in [18] were 15 min, 2 h and over 48 h, respectively. The Papp at 20 h in series [21] is 5.7 ×10⁻⁶ cm/s.

For orientation: mortality means the percentage killed. One may read the IC50 as the concentration at which inhibition is half-maximal. By Papp is commonly meant the rate of passage across a membrane or cell layer, normalised by area and donor concentration.
